Measured values published in patent US5574043A, “Certain [1,2,5-thiadiazol-4-yl]-1-azabicyclo [3.2.1]octane derivatives and their pharmaceutical uses” (Novo Nordisk A/S, priority 1995, dated 1996).
Where a name gives a salt, the structure may show the parent alone.

Target: muscarinic acetylcholine receptors
Assay: Inhibition of specific binding of 3H-Oxotremorine-M (OXO BINDING) in vitro, rat cortex
Set-up: species or system male Wistar rats
Settings: rat cortex homogenate, 3H-Oxotremorine 1.0 nM, 30 min at 25° C., pH 7.4
Source text: The pharmacological properties of the compounds of the invention can be illustrated by determining their capability to inhibit the specific binding of ^3 H-Oxotremorine-M (^3 H-Oxo). Birdsdall N. J. M., Hulme E. C., and Burgen A. S. V. (1980). "The Character of Muscarinic Receptors in Different Regions of the Rat Brain". Proc. Roy. Soc. London (Series B) 207,1.
^3 H-Oxo labels muscarinic receptor in the CNS (with a preference for agonist domains of the receptors). Three different sites are labelled by ^3 H-Oxo. […] Using the present experimental conditions only the high and medium affinity sites are determined.
The inhibitory effects of compounds on ^3 H-Oxo binding reflects the affinity for muscarinic acetylcholine receptors.
All preparations are performed at 0°-4° C. unless otherwise indicated. Fresh cortex (0.1-1 g) from male Wistar rats (150-250 g) is homogenized for 5-10 s in 10 ml 20 mM Hepes pH: 7.4, with an Ultra-Turrax homogenizer. The homogenizer, is rinsed with 10 ml of buffer and the combined suspension centrifuged for 15 min at 40,000×g. The pellet is washed three times with buffer. In each step the pellet is homogenized as before in 2×10 ml of buffer and centrifuged for 10 min at 40,000×g.
The final pellet is homogenized in 20 mM Hepes pH: 7.4 (100 ml per g of original tissue) and used for binding assay. Aliquots of 0.5 ml is added 25 μl of test solution and 25 μl of ^3 H-Oxotremorine (1.0 nM, final concentration) mixed and incubated for 30 min at 25° C. Non-specific binding is determined in triplicate using arecoline (1 μg/ml, final concentration) as the test substance. After incubation samples are added 5 ml of ice-cold buffer and poured directly onto Whatman GF/C glass fibre filters under suction and immediately washed 2 times with 5 ml of ice-cold buffer. The amount of radioactivity on the filters are determined by conventional liquid scintillation counting. Specific binding is total binding minus non specific binding.
Test substances are dissolved in 10 ml water (if necessary heated on a steam bath for less than 5 minutes) at a concentration of 2.2 mg/ml.
The test value will be given as IC50 (the concentration (ng/ml) of the test substance which inhibits the specific binding of ^3 H-Oxo by 50%).
IC50 =(applied test substance concentration) [formula] where Co is specific binding in control assays and Cx is the specific binding in the test assay. (The calculations assume normal mass-action kinetics).

SMILES | Inhibition in vitro OXO BINDING IC50
CCC=CCCOc1nsnc1C1CN2CCC1CC2.O=C(O)/C=C/C(=O)O (stereo not drawn) [Compound 49, 3-(3-(3-Hexenyloxy)-1,2,5-thiadiazol-4-yl)-1-azabicyclo[2.2.2]octane fumarate] | 0.33 ng/mL
c1ccc(CSc2nsnc2[C@H]2CN3CCC[C@@H]2C3)cc1 (relative stereo) [Compound 88, Endo-6-(3-benzylthio-1,2,5-thiadiazol-4-yl)-1-azabicyclo[3.2.1]octane oxalate] | 6.1 ng/mL
CCCOc1nsnc1[C@@H]1CN2CCC[C@@H]1C2 (relative stereo) [Compound 119, Exo-6-(3-propoxy-1,2,5-thiadiazol-4-yl)-1-azabicyclo[3.2.1]octane oxalate] | 0.30 ng/mL
CCCSc1nsnc1[C@H]1CN2CCC[C@@H]1C2 (relative stereo) [Compound 57, Endo-6-(3-propylthio-1,2,5-thiadiazol-4-yl)-1-azabicyclo[3.2.1]octane oxalate] | 4.6 ng/mL
ClC1=C(c2cnsn2)CN2CCCC1C2.O=C(O)C(=O)O (stereo not drawn) [Compound 65, 4-Chloro-3-(1,2,5-thiadiazol-4-yl)-1-azabicyclo[3.3.1]non-3-ene oxalate] | 9.6 ng/mL
CCCCCCSc1nsnc1[C@@H]1CN2CC[C@H]1C2 (relative stereo) [Compound 34, Endo-3-(3-hexylthio-1,2,5-thiadiazol-4-yl)-1-azabicyclo[2.2.1]heptane fumarate] | 7.9 ng/mL
N#Cc1ccc(CSc2nsnc2C2CN3CCC2CC3)cc1.O=C(O)C(=O)O (stereo not drawn) [Compound 45, 3-(3-(4-Cyanobenzylthio)-1,2,5-thiadiazol-4-yl)-1-azabicyclo[2.2.2]octane oxalate] | 1.6 ng/mL
CCCSc1nsnc1[C@H]1CN2CC[C@H]1C2 (relative stereo) [Compound 40, Exo-3-(3-propylthio-1,2,5-thiadiazol-4-yl)-1-azabicyclo[2.2.1]heptane oxalate] | 0.19 ng/mL
Clc1nsnc1[C@@H]1CN2CC[C@@H]1C2 (relative stereo) [Compound 21, Exo-3-(3-chloro-1,2,5-thiadiazol-4-yl)-1-azabicyclo[2.2.1]heptane oxalate] | 0.96 ng/mL
CCCCSc1nsnc1[C@H]1CN2CCC[C@H]1C2 (relative stereo) [Compound 30, Exo-6-(3-butylthio-1,2,5-thiadiazol-4-yl)-1-azabicyclo[3.2.1]octane oxalate] | 0.13 ng/mL
c1ccc(CCCSc2nsnc2[C@@H]2CN3CC[C@H]2C3)cc1 (relative stereo) [Compound 35, Endo-3-(3-(3-phenylpropylthio)-1,2,5-thiadiazol-4-yl)-1-azabicyclo[2.2.1]heptane oxalate] | 1.9 ng/mL
CCCCCCCSc1nsnc1C1CN2CCC1CC2.O=C(O)/C=C/C(=O)O (stereo not drawn) [Compound 54, 3-(3-Heptylthio-1,2,5-thiadiazol-4-yl)-1-azabicyclo[2.2.2]octane fumarate] | 3.1 ng/mL
CCOc1nsnc1C1=C(Cl)CC2CCC1N2.O=C(O)C(=O)O (stereo not drawn) [Compound 43, 3-Chloro-2-(3-ethoxy-1,2,5-thiadiazol-4-yl)-8-azabicyclo[3.2.1]oct-2-ene oxalate] | 2.33 ng/mL
c1ccc(OCCSc2nsnc2[C@H]2CN3CCC[C@H]2C3)cc1 (relative stereo) [Compound 133, Exo-6-(3-(2-phenoxyethylthio)-1,2,5-thiadiazol-4-yl)-1-azabicyclo[3.2.1]octane oxalate] | 0.45 ng/mL
CCCCSc1nsnc1[C@@H]1CN2CC[C@H]1C2 (relative stereo) [Compound 36, Endo-3-(3-butylthio-1,2,5-thiadiazol-4-yl)-1-azabicyclo[2.2.1]heptane fumarate] | 0.82 ng/mL
C=CCCCCOc1nsnc1C1CN2CCC1CC2.O=C(O)/C=C/C(=O)O (stereo not drawn) [Compound 48, 3-(3-(5-Hexenyloxy)-1,2,5-thiadiazol-4-yl)-1-azabicyclo[2.2.2]octane fumarate] | 0.43 ng/mL
ClC1=C(c2nsnc2Cl)C2CCC(C1)N2.O=C(O)C(=O)O (stereo not drawn) [Compound 47, 3-Chloro-2-(3-chloro-1,2,5-thiadiazol-4-yl)-8-azabicyclo[3.2.1]oct-2-ene oxalate] | > 300 ng/mL

SMILES | Inhibition in vitro OXO BINDING IC50
CCCCCCCSc1nsnc1[C@H]1CN2CCC[C@H]1C2 (relative stereo) [Compound 75, Exo-6-(3-heptylthio-1,2,5-thiadiazol-4-yl)-1-azabicyclo[3.2.1]octane oxalate] | 0.96 ng/mL
CCc1ccc(COc2nsnc2C2CN3CCC2CC3)cc1.O=C(O)C(=O)O (stereo not drawn) [Compound 109, 3-(3-(4-Ethylbenzyloxy)-1,2,5-thiadiazol-4-yl)-1-azabicyclo[2.2.2]octane oxalate] | 4.0 ng/mL
CSc1nsnc1[C@@H]1CN2CCC[C@H]1C2 (relative stereo) [Compound 85, Endo-6-(3-methylthio-1,2,5-thiadiazol-4-yl)-1-azabicyclo[3.2.1]octane oxalate] | 7.2 ng/mL
CCCCCSc1nsnc1C1CN2CCC1CC2.O=C(O)/C=C/C(=O)O (stereo not drawn) [Compound 12, 3-(3-Pentylthio-1,2,5-thiadiazol-4-yl)-1-azabicyclo[2.2.2]octane fumarate] | 0.45 ng/mL
Clc1nsnc1[C@H]1CN2CCC[C@@H]1C2 (relative stereo) [Compound 16, Endo-6-(3-chloro-1,2,5-thiadiazol-4-yl)-1-azabicyclo[3.2.1]octane-oxalate] | 67 ng/mL
CC(C)CCCSc1nsnc1[C@H]1CN2CCC[C@@H]1C2 (relative stereo) [Compound 87, Endo-6-(3-isohexylthio-1,2,5-thiadiazol-4-yl)-1-azabicyclo[3.2.1]octane oxalate] | 10 ng/mL
CCCCOc1nsnc1C1=C(Cl)C2CCCN(C1)C2.O=C(O)C(=O)O (stereo not drawn) [Compound 93, 4-Chloro-3-(3-butoxy-1,2,5-thiadiazol-4-yl)-1-azabicyclo[3.3.1]non-3-ene oxalate] | 9.0 ng/mL
Cn1nnnc1SCCCCSc1nsnc1C1CN2CCC1CC2 (stereo not drawn) [Compound 106, oxalate] | 0.9 ng/mL
c1ccc(OCCSc2nsnc2[C@@H]2CN3CCC[C@H]2C3)cc1 (relative stereo) [Compound 84, Endo-6-(3-(2-phenoxyethylthio)-1,2,5-thiadiazol-4-yl)-1-azabicyclo[3.2.1]octane oxalate] | 13 ng/mL
COc1nsnc1[C@@H]1CN2CCC[C@@H]1C2 (relative stereo) [Compound 117, Exo-6-(3-methoxy-1,2,5-thiadiazol-4-yl)-1-azabicyclo[3.2.1]octane oxalate] | 2.0 ng/mL
O=C(O)/C=C/C(=O)O.c1ccc(OCCSc2nsnc2C2CN3CCC2CC3)cc1 (stereo not drawn) [Compound 102, 3-(3-(2-Phenoxyethylthio)-1,2,5-thiadiazol-4-yl)-1-azabicyclo[2.2.2]octane fumarate] | 1.52 ng/mL
CCCCSc1nsnc1C1CN2CCC1CC2.O=C(O)/C=C/C(=O)O (stereo not drawn) [Compound 13, 3-(3-Butylthio-1,2,5-thiadiazol-4-yl)-1-azabicyclo[2.2.2]octane fumarate] | 0.65 ng/mL
CCSc1nsnc1C1CN2CCC1CC2.O=C(O)C(=O)O (stereo not drawn) [Compound 52, 3-(3-Ethylthio-1,2,5-thiadiazol-4-yl)-1-azabicyclo[2.2.2]octane oxalate] | 0.61 ng/mL
CSc1nsnc1C1CN2CCC1CC2.O=C(O)C(=O)O (stereo not drawn) [Compound 131, 3-(3-Methylthio-1,2,5-thiadiazol-4-yl)-1-azabicyclo[2.2.2]octane oxalate] | 0.96 ng/mL
O=C(O)/C=C/C(=O)O.c1ccc(CCCSc2nsnc2C2CN3CCC2CC3)cc1 (stereo not drawn) [Compound 44, 3-(3-(3-Phenylpropylthio)-1,2,5-thiadiazol-4-yl)-1-azabicyclo[2.2.2]octane fumarate] | 4.7 ng/mL
CCCCCCOc1nsnc1C1=CC2CCCN(C1)C2.O=C(O)C(=O)O (stereo not drawn) [Compound 98, 3-(3-Hexyloxy-1,2,5-thiadiazol-4-yl)-1-azabicyclo[3.3.1]non-3-ene oxalate] | 1.0 ng/mL
